In patent US20060247318A1, “Small molecule inhibitors of STAT3 and the uses thereof” (priority 2005, published 2006):

Columns and labels:
Stat3 [1] = assay: Co-immunoprecipitation of Stat3-Flag and Stat3-HA (dimerization) in MDA-MB-435s cells; format: cell-based; conditions: 20 μM, 24 h
Description: (A) Untransfected and untreated MDA-MB-435s cells. (B and E) Cells cotransfected with pCMV-Stat3-Flag and pCMV-Stat3-HA plasmids were immunostained with anti-flag IgG-Rhodamine. (B) Untreated cells and (E) STA-21 treated cells. (C and F) Transfected cells were immunostained with anti-HA IgG-FITC. (C) Untreated cells and (F) STA-21 treated cells. (D and G) Transfected cells were co-immunostained with both anti-HA IgG-FITC and anti-flag IgG-Rhodamine. […] (H) MDA-MB-435s cells were cotransfected with pCMV-Stat3-Flag and pCMV-Stat3-HA plasmids and were exposed to 20 μM STA-21 for 24 h, then cell lysates were immunoprecipitated with anti-HA or anti-Flag antibodies. Immunoprecipitates were resolved on 10% SDS-PAGE and then immunoblotted with anti-HA, anti-Flag or anti-Stat3 antibodies.
The effect of STA-21 on Stat3 in vivo dimerization in breast cancer MDA-MB-435s cells was also investigated. After the exposure to 20 μM STA-21 for 24 h, the cells were harvested and the lysates from the cells expressing Stat3-Flag and Stat3-HA tagged proteins were immunoprecipitated with an anti-Flag or anti-HA antibody, respectively. The immunoprecipitated reaction mixtures were resolved on a 10% SDS-PAGE and immunoblotted with an anti-HA, anti-Flag, or anti-Stat3 antibody, respectively.

Stat3 [2] = assay: Electrophoretic mobility shift assay, MDA-MB-435s nuclear extract; format: biochemical; conditions: 30 μM, 30 min
Experimental: (§1) FIGS. 3A-3B show the inhibition of Stat3 DNA binding activity and Stat3-regulated anti-apoptotic factors by STA-21. (A) MDA-MB-435s cell nuclear extract was incubated with 30 μM STA-21 for 30 min at room temperature, and then incubated with r-^32P-ATP labeled consensus binding sequence for 20 min at room temperature. The reaction mixtures were resolved on 8% polyacrylamide gel. (B) The lysates from MDA-MB-468 cells treated with the indicated concentrations of STA-21 for 48 h were resolved on 10% SDS-PAGE, then immunoblotted with antibodies as indicated.
(§2) It was next examined whether or not STA-21 could reduce Stat3 DNA binding activity using electrophoretic mobility shift assays as reported (Turkson et al., J. Biol. Chem. 276:45443 (2001)). In MDA-MB-435s breast carcinoma cells with constitutive Stat3 signaling, high Stat3 DNA binding activity was observed (FIG. 3A).

Stat5 = assay: Electrophoretic mobility shift assay, MDA-MB-435s cells; format: biochemical
MDA-MB-231 = assay: Sub-G1 flow cytometry (apoptotic cells), survival; format: cell-based; conditions: MDA-MB-231, constitutively activated Stat3, 20 μM or 30 μM, 48 h
Experimental: (§3) (A) The phosphorylation of Stat3 at Y-705 in different cell lines. (B) The cell lines were treated with STA-21 at concentrations as indicated for 48 h, and then cells were harvested and analyzed for the Sub-G1 profile that indicated apoptotic cells on a FACScan Flow Cytometer (Becton Dickinson, San Jose, Calif.). The results were based on the averages and standard deviations from three separate experiments.
(§4) Since STA-21 inhibited Stat3-dependent luciferase and DNA binding activities, it was next examined whether STA-21 inhibited the growth and survival of breast cancer cells with constitutive Stat3 signaling. […] The Stat3 status of the cell lines was confirmed by measurement of phosphorylated Stat3 (FIG. 4A).

MCF7 = assay: Sub-G1 flow cytometry (apoptotic cells), survival; format: cell-based; conditions: MCF7, no constitutive Stat3 signaling, 20 μM or 30 μM, 48 h
Experimental: as §3, §4

MDA-MB-468 = assay: Sub-G1 flow cytometry (apoptotic cells), survival; format: cell-based; conditions: MDA-MB-468, constitutively activated Stat3, 20 μM or 30 μM, 48 h
Experimental: as §3, §4

MDA-MB-435s = assay: Sub-G1 flow cytometry (apoptotic cells), survival; format: cell-based; conditions: constitutively activated Stat3, 20 μM or 30 μM, 48 h
Experimental: as §3, §4

MDA-MB-453 = assay: Sub-G1 flow cytometry (apoptotic cells), survival; format: cell-based; conditions: MDA-MB-453, no constitutive Stat3 signaling, 20 μM or 30 μM, 48 h
Experimental: as §3, §4

[3] = tested on: human skin fibroblasts (HSF); assay: Sub-G1 flow cytometry (apoptotic cells), survival; format: cell-based; conditions: no constitutive Stat3 signaling, 20 μM or 30 μM, 48 h
Experimental: as §3, §4

Stat1 = target: T1, Stat1 (Homo sapiens, UniProt P42224); assay: Electrophoretic mobility shift assay, MDA-MB-435s cells; format: biochemical
T1 construct: MDA-MB-435s cell nuclear extract was incubated with 30 μM STA-21 for 30 min at room temperature; endogenous in cells; host or cells: MDA-MB-435s nuclear extract
T1 sequence (P42224 1-750): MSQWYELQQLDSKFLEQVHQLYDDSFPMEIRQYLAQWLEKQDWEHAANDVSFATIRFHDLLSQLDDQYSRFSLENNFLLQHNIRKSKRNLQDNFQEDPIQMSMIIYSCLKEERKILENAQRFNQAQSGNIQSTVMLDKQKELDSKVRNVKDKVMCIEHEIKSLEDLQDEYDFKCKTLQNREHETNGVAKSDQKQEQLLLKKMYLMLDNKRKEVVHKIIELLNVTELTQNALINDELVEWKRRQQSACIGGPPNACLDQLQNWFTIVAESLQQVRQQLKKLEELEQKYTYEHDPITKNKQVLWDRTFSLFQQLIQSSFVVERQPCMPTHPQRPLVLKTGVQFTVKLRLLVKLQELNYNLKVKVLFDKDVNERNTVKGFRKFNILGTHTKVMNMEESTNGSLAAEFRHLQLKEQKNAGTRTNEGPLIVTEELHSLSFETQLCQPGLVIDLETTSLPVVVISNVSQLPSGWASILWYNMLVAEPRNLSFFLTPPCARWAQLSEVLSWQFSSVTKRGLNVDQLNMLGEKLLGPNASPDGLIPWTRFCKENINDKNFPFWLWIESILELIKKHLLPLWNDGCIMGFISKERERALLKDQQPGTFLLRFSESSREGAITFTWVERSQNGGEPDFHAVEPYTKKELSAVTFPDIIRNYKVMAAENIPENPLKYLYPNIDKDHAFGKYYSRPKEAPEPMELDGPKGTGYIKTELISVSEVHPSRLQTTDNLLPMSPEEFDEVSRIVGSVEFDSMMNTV

Stat3 [4] = assay: Stat3-dependent luciferase reporter (pLucTKS3) in Caov-3 cloned cells; format: cell-based; conditions: pLucTKS3, 20 μM, 48 h
Experimental: (§5) FIGS. 2A-2B show the inhibition of Stat3 dependent luciferase activity in cancer cells by STA-21. (A) The clone from Caov-3 carcinoma cells stably transfected with pLucTKS3 Stat3-dependent luciferase reporter was used for initial Sat3 small molecule inhibitor screening. The cloned cells were treated with 20 μM of STA-21 as well as other small molecule compounds for 48 h, then the cells were harvested for luciferase activity analysis. (B) The clones from MDA-MB-435s cells stably transfected with pLucTKS3 Stat3-dependent luciferase reporter or SV40 luciferase reporter were treated with 20 μM of STA-21 for 48 h. Luciferase activity was measured using a Promega luciferase kit according to the manufacturer's instructions. The results were based on the averages and standard deviations from three separate experiments.
(§6) The 100 selected inhibitors were evaluated using a Stat3 luciferase reporter system. Both MDA-MB-435s breast carcinoma cells and Caov-3 ovarian carcinoma cells express constitutively activated Stat3 (Song et al., Int. J. Oncol. 24:1017 (2004); Song et al., Biochem. Biophys. Res. Commun. 314:143 (2004)). […] The selected clones were exposed to Stat3 inhibitors at a final concentration of 20 μM for 48 h and luciferase activity was measured using a Promega Luciferase kit (Madison, Wis.).

SV40 luciferase reporter = SV40 luciferase reporter (control lacking Stat3 binding sites) in MDA-MB-435s clones; format: cell-based; conditions: reporter without Stat3 DNA binding site, 20 μM, 48 h
Experimental: as §5, §6

Stat3 [5] = assay: Stat3-dependent luciferase reporter (pLucTKS3) in MDA-MB-435s cloned cells; format: cell-based; conditions: pLucTKS3, 20 μM, 48 h
Experimental: as §5, §6

Bcl-XL = assay: Western blot of MDA-MB-468 cell lysates; format: cell-based; conditions: MDA-MB-468 cells, 20 or 30 μM, 48 h
Experimental: as §1, §2

ERK (P-ERK) = assay: Western blot of MDA-MB-468 cell lysates; format: cell-based; conditions: MDA-MB-468 cells, 48 h
Experimental: as §1, §2

AKT (P-AKT) = assay: Western blot of MDA-MB-468 cell lysates; format: cell-based; conditions: MDA-MB-468 cells, 48 h
Experimental: as §1, §2

[6] = tested on: breast cancer cells that contain constitutively active Stat3; assay: Cell viability assays using MTT; format: cell-based
Description: as §4

Compound: C[C@@H]1CC(=O)c2c(ccc3c2C(=O)c2cccc(O)c2C3=O)C1 [STA-21]
- Stat3 dimerization between Stat3-Flag and Stat3-HA proteins (Stat3 [1]): abrogated Stat3 dimerization
- Stat3 DNA binding activity (Stat3 [2]): inhibited Stat3 DNA binding activity
- Stat5 DNA binding activity (Stat5): not Stat1 and Stat5 DNA binding activity
- inhibition of survival (accumulation of cells in sub-G1 phase) (MDA-MB-231): remarkable inhibitory activity
- inhibition of survival (sub-G1) (MCF7): minimal inhibitory effect
- inhibition of survival (accumulation of cells in sub-G1 phase) (MDA-MB-468): remarkable inhibitory activity
- inhibition of survival (accumulation of cells in sub-G1 phase) (MDA-MB-435s): remarkable inhibitory activity
- inhibition of survival (sub-G1) (MDA-MB-453): minimal inhibitory effect
- inhibition of survival (sub-G1) [3]: minimal inhibitory effect
- Stat1 DNA binding activity (Stat1): not Stat1 and Stat5 DNA binding activity
- effect on Stat3 induced luciferase activity (Stat3 [4]): remarkable inhibitory effect
- luciferase activity, SV40 luciferase reporter (SV40 luciferase reporter): did not affect luciferase activity
- luciferase activity (Stat3 [5]): decreased more than five fold
- downstream anti-apoptotic effector Bcl-XL, Western blot (Bcl-XL): inhibited the downstream anti-apoptotic effector Bcl-XL
- phosphorylation of ERK (P-ERK) (ERK (P-ERK)): did not affect the phosphorylation
- phosphorylation of AKT (P-AKT) (AKT (P-AKT)): did not affect the phosphorylation
- growth and survival, cell viability (MTT) combined with sub-G1 data [6]: strong potential to inhibit the growth and survival
